From PMC6271467, “The Anthraquinone Derivatives from the Fungus Alternaria sp. XZSBG-1 from the Saline Lake in Bange, Tibet, China” (Molecules, 2014)

Assays:
Format in all cases: cell-based
MCF-7/ADR = test: Cytotoxicity, MTT assay, MCF-7/ADR; settings: Homo sapiens, NCI/ADR-RES, 48 h exposure, MCF-7/ADR cells
Description: (§1) Compounds 1–11 were evaluated for cytotoxic activity against several human cancer cell lines by MTT assay. […] The other compounds show no notable inhibitory activity against any tested cancer cell lines.
(§2) MCF-7/ADR, HeLa, HCT-116 cell lines were cultured in Dulbeccos’ modification Eagle’s medium (DMEM, Invitrogen, Carlsbad, CA, USA) supplemented with 10% fetal bovine serum (FBS, Hyclone, Logan, UT, USA), 2 mM L-glutamine, 100 μg/mL streptomycin and 100 U/mL penicillin (Invitrogen). The cells were incubated at 37 °C in a humidified atmosphere with 5% CO2.
(§3) Cells were harvested during logarithmic growth phase and seeded in 96-well plates at a density of 1 × 10^4 cells/mL, and cultured at 37 °C in a humidified incubator (5% CO2) for 24 h, followed by exposure to various concentrations of compounds tested for 48 h. Subsequently 20 μL of MTT (Genview, Houston, TX, USA) solution (5 mg/mL) was added to each well and mixed, the cells were then incubated for an additional 4 h. Culture supernatant was moved, 150 μL of DMSO (Sangon Biotech, Shanghai, China) was added to each well to fully dissolve the MTT-formazan crystals. Cell growth inhibition was determined by measuring the absorbance (Abs) at λ = 570 nm using a microplate reader and calculated according to the following equation: Growth inhibition = (1 − OD of treated cells/OD of control cells) × 100%
(§4) The half maximal inhibitory concentrations (IC50) were obtained from liner regression analysis of the concentration-response curves plotted for each tested compound [17, 18].

HCT-116 = test: Cytotoxicity, MTT assay, HCT-116; settings: Homo sapiens, 48 h exposure, HCT-116 cells
Description: as §1, §2, §3, §4

HeLa = test: Cytotoxicity, MTT assay, HeLa; settings: Homo sapiens, 48 h exposure, HeLa cells
Description: as §1, §2, §3, §4

SMILES | IC50 (MCF-7/ADR) | IC50 (HCT-116) | IC50 (HeLa)
COc1cc(O)c2c(c1)C(=O)C13OC1(C2=O)[C@H](O)[C@@H](O)[C@@](C)(O)[C@H]3O (relative stereo) [Compound 1, (1R*,2R*,3R*,4R*)-1,2,3,4,8-pentahydroxy-6-methoxy-3-methyl-1,2,3,4-tetrahydro-4a,9a-epoxyanthracene-9,10-dione] | 18.5 µM | 23.2 ± 2.85 µM | 43.7 ± 4.02 µM
COc1cc(O)c2c(c1)C(=O)C1=C(C2=O)[C@H]([C@H]2C3=C(C(=O)c4cc(OC)cc(O)c4C3=O)[C@H](O)[C@](C)(O)[C@H]2O)[C@H](O)[C@@](C)(O)[C@H]1O (relative stereo) [Compound 2, (1S*,1'S*,2R*,2'R*,3S*,3'S*,4S*,4'S*)-1,1',2,2',3,3',5,5'-octahydroxy-7,7'-dimethoxy-2,2'-dimethyl-1,1',2,2',3,3',4,4'-octahydro-[4,4'-bianthracene]-9,9',10,10'-tetraone] | > 100 µM | > 50 µM | > 50 µM
COc1cc(O)c2c(c1-c1c(OC)cc(O)c3c1C(=O)c1cc(C)c(O)cc1C3=O)C(=O)C1=C(C2=O)[C@H](O)[C@@H](O)[C@@](C)(O)[C@H]1O (relative stereo) [Compound 3, (1S*,2R*,3S*,4S*)-1,2,2',3,4,8,8'-heptahydroxy-6,6'-dimethoxy-3,3'-dimethyl-1,2,3,4-tetrahydro-[5,5'-bianthracene]-9,9',10,10'-tetraone] |  | 32.4 ± 1.57 µM | > 50 µM
COc1cc(O)c2c(c1-c1c(OC)cc(O)c3c1C(=O)c1cc(C)c(O)cc1C3=O)C(=O)C1=C(C2=O)[C@@H](O)[C@@H](O)[C@@](C)(O)[C@H]1O (relative stereo) [Compound 4, (1R*,2R*,3S*,4S*)-1,2,2',3,4,8,8'-heptahydroxy-6,6'-dimethoxy-3,3' dimethyl-1,2,3,4-tetrahydro-5,5'-bianthracene-9,9',10,10'-tetraone] | > 50 µM | > 50 µM | > 100 µM
COc1cc2c(c(-c3c(O)c(OC)cc4c3C(=O)C3=C(C4=O)[C@@H](O)[C@H](O)[C@](C)(O)[C@@H]3O)c1O)C(=O)C1=C(C2=O)[C@@H](O)[C@H](O)[C@](C)(O)[C@@H]1O [Compound 5, alterporriol E] | > 100 µM | > 100 µM | > 100 µM
COc1cc(O)c2c(c1-c1c(OC)cc(O)c3c1C(=O)C1=C(C3=O)[C@@H](O)[C@H](O)[C@](C)(O)[C@@H]1O)C(=O)C1=C(C2=O)[C@@H](O)[C@H](O)[C@](C)(O)[C@@H]1O [Compound 6, alterporriol D] | > 100 µM | > 100 µM | > 100 µM
COc1cc(O)c2c(c1)C(=O)c1cc(C)c(O)c(-c3c(OC)cc(O)c4c3C(=O)C3=C(C4=O)[C@H](O)[C@@H](O)[C@@](C)(O)[C@H]3O)c1C2=O [Compound 7, alterporriol N] | > 100 µM | > 100 µM | > 100 µM
COc1cc(O)c2c(c1-c1c(OC)cc(O)c3c1C(=O)c1cc(C)c(O)cc1C3=O)C(=O)C1=C(C2=O)[C@@H](O)[C@H](O)[C@](C)(O)[C@H]1O [Compound 8, alterporriol A] | 45 µM | > 50 µM | > 50 µM
COc1cc(O)c2c(c1)C(=O)C1=C(C[C@@H](O)[C@@](C)(O)[C@@H]1O)C2=O [Compound 9, altersolanol C] | > 100 µM | 3.03 ± 0.05 µM | 8.09 ± 0.89 µM
COc1cc(O)c2c(c1)C(=O)C1=C(C2=O)[C@H](O)[C@@H](O)[C@@](C)(O)[C@@H]1O [Compound 10, altersolanol A] | > 100 µM | > 100 µM | > 100 µM
COc1cc(O)c2c(c1)C(=O)c1cc(C)c(O)cc1C2=O [Compound 11, macrosporin] | > 100 µM | > 100 µM | > 100 µM
COc1cccc2c1C(=O)c1c(O)c3c(c(O)c1C2=O)C[C@@](O)(C(=O)CO)C[C@@H]3O[C@H]1C[C@H](N)[C@@H](O)[C@H](C)O1 [EPI, Epirubicin, reference compound] | 2.36 µM | 0.96 ± 0.02 µM | 0.48 ± 0.03 µM
